Experimental data from US20230226005A1, “Methods of Treating, Ameliorating, Shortening Duration, and/or Reversing Symptoms and/or Complications of a Coronavirus Infection” (Yale University, priority 2020, published 2023).

Key:
SARS-CoV-2 = test: Phase IIa double-blind placebo-controlled study, camostat mesylate 200 mg four times daily for seven days: viral load (log10) by COVID-19 RT-PCR of nasopharyngeal swab and saliva; assay type: in vivo; details: for viral load, Fitzmaurice mixed model, Common baseline: day 0; for viral load change Effect (camostat vs placebo), Fitzmaurice mixed model, visit 2 / viral load, Fitzmaurice mixed model, visit 2 / viral load, Fitzmaurice mixed model, visit 2 change: day 2; for viral load change Effect (camostat vs placebo), Fitzmaurice mixed model, visit 3(D4) / viral load, Fitzmaurice mixed model, visit 3(D4) / viral load, Fitzmaurice mixed model, visit 3(D4) change: day 4; for viral load change Effect (camostat vs placebo), Fitzmaurice mixed model, visit 4(D6) / viral load, Fitzmaurice mixed model, visit 4(D6) / viral load, Fitzmaurice mixed model, visit 4(D6) change: day 6; for viral load Camostat LSMean Change (SE) / viral load change Difference (SE) between treatment groups: ANCOVA linear mixed model, n = 57; for viral load change Difference (SE) between treatment groups: placebo minus camostat
COVID-19 infection = test: Phase IIa study: nose-family symptom score; assay type: in vivo
[1] = visit 3 (day 4), listed as Camostat

CN(C)C(=O)COC(=O)Cc1ccc(OC(=O)c2ccc(NC(=N)N)cc2)cc1 [camostat, 4-[[4-[(Aminoiminomethyl)amino]benzoyl]oxy]benzeneacetic acid 2-(dimethylamino)-2-oxoethyl ester]
change in viral load from baseline, Mean (SARS-CoV-2; ORF1ab gene, visit 6 (day 28)): −6.15 log10
change in viral load from baseline, Median (SARS-CoV-2; ORF1ab gene, visit 6 (day 28)): −6.57 log10
viral load (log10) Mean (SARS-CoV-2; ORF1ab gene, visit 6 (day 28)): 0.05 log10
viral load (log10) Median (SARS-CoV-2; ORF1ab gene, visit 6 (day 28)): 0.00 log10
viral load, Fitzmaurice mixed model, Common baseline (SARS-CoV-2; ORF1ab): 6.3 (5.8, 6.8) log10
viral load change Effect (camostat vs placebo), Fitzmaurice mixed model, visit 2 (SARS-CoV-2; ORF1ab): 0.28 (−0.57, 1.13) log10
viral load, Fitzmaurice mixed model, visit 2 (SARS-CoV-2; ORF1ab): 5 (4.3, 5.8) log10
viral load, Fitzmaurice mixed model, visit 2 change (SARS-CoV-2; ORF1ab): −1.2 (−1.9, −0.6) log10
viral load change Effect (camostat vs placebo), Fitzmaurice mixed model, visit 3(D4) (SARS-CoV-2; ORF1ab): −0.46 (−1.3, 0.39) log10
viral load, Fitzmaurice mixed model, visit 3(D4) (SARS-CoV-2; ORF1ab): 4.2 (3.5, 4.9) log10
viral load, Fitzmaurice mixed model, visit 3(D4) change (SARS-CoV-2; ORF1ab): −2.1 (−2.7, −1.5) log10
viral load change Effect (camostat vs placebo), Fitzmaurice mixed model, visit 4(D6) (SARS-CoV-2; ORF1ab): −0.09 (−1.27, 1.08) log10
viral load, Fitzmaurice mixed model, visit 4(D6) (SARS-CoV-2; ORF1ab): 2.6 (1.8, 3.5) log10
viral load, Fitzmaurice mixed model, visit 4(D6) change (SARS-CoV-2; ORF1ab): −3.6 (−4.5, −2.7) log10
viral load, Fitzmaurice mixed model, Common baseline (SARS-CoV-2; S gene): 5 (4.1, 5.9) log10
viral load change Effect (camostat vs placebo), Fitzmaurice mixed model, visit 2 (SARS-CoV-2; S gene): 0.36 (−0.72, 1.43) log10
viral load, Fitzmaurice mixed model, visit 2 (SARS-CoV-2; S gene): 3.6 (2.6, 4.6) log10
viral load, Fitzmaurice mixed model, visit 2 change (SARS-CoV-2; S gene): −1.4 (−2.2, −0.5) log10
viral load change Effect (camostat vs placebo), Fitzmaurice mixed model, visit 3(D4) (SARS-CoV-2; S gene): −0.13 (−1.07, 0.8) log10
viral load, Fitzmaurice mixed model, visit 3(D4) (SARS-CoV-2; S gene): 2.7 (1.9, 3.5) log10
viral load, Fitzmaurice mixed model, visit 3(D4) change (SARS-CoV-2; S gene): −2.3 (−3.1, −1.5) log10
viral load change Effect (camostat vs placebo), Fitzmaurice mixed model, visit 4(D6) (SARS-CoV-2; S gene): 0.19 (−0.98, 1.36) log10
viral load, Fitzmaurice mixed model, visit 4(D6) (SARS-CoV-2; S gene): 1.7 (0.8, 2.6) log10
viral load, Fitzmaurice mixed model, visit 4(D6) change (SARS-CoV-2; S gene): −3.2 (−4.3, −2.2) log10
change in viral load from baseline, Mean (SARS-CoV-2; S gene, visit 1 (day 0)): 0.00 log10
change in viral load from baseline, Median (SARS-CoV-2; S gene, visit 1 (day 0)): 0.00 log10
viral load (log10) Mean (SARS-CoV-2; S gene, visit 1 (day 0)): 4.50 log10
viral load (log10) Median (SARS-CoV-2; S gene, visit 1 (day 0)): 5.02 log10
change in viral load from baseline, Mean (SARS-CoV-2; S gene, visit 2 (day 2)): −1.24 log10
change in viral load from baseline, Median (SARS-CoV-2; S gene, visit 2 (day 2)): −0.89 log10
viral load (log10) Mean (SARS-CoV-2; S gene, visit 2 (day 2)): 3.04 log10
viral load (log10) Median (SARS-CoV-2; S gene, visit 2 (day 2)): 3.22 log10
change in viral load from baseline, Mean (SARS-CoV-2; S gene, visit 3 (day 4)): −2.06 log10
change in viral load from baseline, Median (SARS-CoV-2; S gene, visit 3 (day 4)): −1.94 log10
viral load (log10) Mean (SARS-CoV-2; S gene, visit 3 (day 4)): 2.42 log10
viral load (log10) Median (SARS-CoV-2; S gene, visit 3 (day 4)): 1.01 log10
change in viral load from baseline, Mean (SARS-CoV-2; S gene, visit 4 (day 6)): −2.70 log10
change in viral load from baseline, Median (SARS-CoV-2; S gene, visit 4 (day 6)): −2.41 log10
viral load (log10) Mean (SARS-CoV-2; S gene, visit 4 (day 6)): 1.48 log10
viral load (log10) Median (SARS-CoV-2; S gene, visit 4 (day 6)): 0.00 log10
change in viral load from baseline, Mean (SARS-CoV-2; S gene, visit 5 (day 14)): −4.20 log10
change in viral load from baseline, Median (SARS-CoV-2; S gene, visit 5 (day 14)): −4.28 log10
viral load (log10) Mean (SARS-CoV-2; S gene, visit 5 (day 14)): 0.27 log10
viral load (log10) Median (SARS-CoV-2; S gene, visit 5 (day 14)): 0.00 log10
change in viral load from baseline, Mean (SARS-CoV-2; S gene, visit 6 (day 28)): −4.37 log10
change in viral load from baseline, Median (SARS-CoV-2; S gene, visit 6 (day 28)): −4.88 log10
viral load (log10) Mean (SARS-CoV-2; S gene, visit 6 (day 28)): 0.00 log10
viral load (log10) Median (SARS-CoV-2; S gene, visit 6 (day 28)): 0.00 log10
viral load Camostat LSMean Change (SE) (SARS-CoV-2; visit 2 (day 2)): −1.10 (0.30) log10
viral load change Difference (SE) between treatment groups (SARS-CoV-2; visit 2 (day 2)): −0.01 (0.42) log10
viral load Camostat LSMean Change (SE) (SARS-CoV-2; visit 3 (day 4)): −1.94 log10
viral load Camostat LSMean Change (SE) (SARS-CoV-2; [1]): −1.94 (0.32) log10
viral load change Difference (SE) between treatment groups (SARS-CoV-2; visit 3 (day 4)): −0.69 log10
viral load change Difference (SE) between treatment groups (SARS-CoV-2; [1]): −0.69 (0.45) log10
viral load Camostat LSMean Change (SE) (SARS-CoV-2; visit 4 (day 6)): −3.22 (0.46) log10
viral load change Difference (SE) between treatment groups (SARS-CoV-2; visit 4 (day 6)): −0.39 (0.63) log10
nose-family symptom score, Fitzmaurice model, Camostat (COVID-19 infection; day 0): 7.6 (0.5)
nose-family symptom score, Fitzmaurice model, Camostat (COVID-19 infection; day 1): 6.6 (0.6)
nose-family symptom score, Fitzmaurice model, Effect (placebo vs camostat) (COVID-19 infection; day 1): 1.3 (0.7)
nose-family symptom score, Fitzmaurice model, Camostat (COVID-19 infection; day 2): 6.6 (0.6)
nose-family symptom score, Fitzmaurice model, Effect (placebo vs camostat) (COVID-19 infection; day 2): 0 (0.7)
nose-family symptom score, Fitzmaurice model, Camostat (COVID-19 infection; day 3): 5.7 (0.6)
nose-family symptom score, Fitzmaurice model, Effect (placebo vs camostat) (COVID-19 infection; day 3): 0.5 (0.7)
nose-family symptom score, Fitzmaurice model, Camostat (COVID-19 infection; day 4): 5.6 (0.6)
nose-family symptom score, Fitzmaurice model, Effect (placebo vs camostat) (COVID-19 infection; day 4): 0 (0.7)
nose-family symptom score, Fitzmaurice model, Camostat (COVID-19 infection; day 5): 5.3 (0.6)
nose-family symptom score, Fitzmaurice model, Effect (placebo vs camostat) (COVID-19 infection; day 5): 1 (0.7)
nose-family symptom score, Fitzmaurice model, Camostat (COVID-19 infection; day 6): 3.9 (0.6)
nose-family symptom score, Fitzmaurice model, Effect (placebo vs camostat) (COVID-19 infection; day 6): 1.4 (0.7)
nose-family symptom score, Fitzmaurice model, Camostat (COVID-19 infection; day 7): 3.6 (0.6)
nose-family symptom score, Fitzmaurice model, Effect (placebo vs camostat) (COVID-19 infection; day 7): 1.2 (0.7)
nose-family symptom score, Fitzmaurice model, Camostat (COVID-19 infection; day 8): 3.3 (0.6)
nose-family symptom score, Fitzmaurice model, Effect (placebo vs camostat) (COVID-19 infection; day 8): 1.5 (0.7)
nose-family symptom score, Fitzmaurice model, Camostat (COVID-19 infection; day 9): 2.9 (0.6)
nose-family symptom score, Fitzmaurice model, Effect (placebo vs camostat) (COVID-19 infection; day 9): 1.3 (0.7)
nose-family symptom score, Fitzmaurice model, Camostat (COVID-19 infection; day 10): 2.9 (0.6)
nose-family symptom score, Fitzmaurice model, Effect (placebo vs camostat) (COVID-19 infection; day 10): 0.9 (0.7)
nose-family symptom score, Fitzmaurice model, Camostat (COVID-19 infection; day 11): 3 (0.6)
nose-family symptom score, Fitzmaurice model, Effect (placebo vs camostat) (COVID-19 infection; day 11): 0.4 (0.7)
nose-family symptom score, Fitzmaurice model, Camostat (COVID-19 infection; day 12): 2.5 (0.6)
nose-family symptom score, Fitzmaurice model, Effect (placebo vs camostat) (COVID-19 infection; day 12): 0.7 (0.7)
nose-family symptom score, Fitzmaurice model, Camostat (COVID-19 infection; day 13): 2.7 (0.6)
nose-family symptom score, Fitzmaurice model, Effect (placebo vs camostat) (COVID-19 infection; day 13): 0.1 (0.7)
nose-family symptom score, Fitzmaurice model, Camostat (COVID-19 infection; day 14): 2.7 (0.6)
nose-family symptom score, Fitzmaurice model, Effect (placebo vs camostat) (COVID-19 infection; day 14): 0.2 (0.8)
